Experimental data published in US20020002269A1, “ARTEMIN, A NEUROTROPHIC FACTOR” (priority 1998, published 2002).

Tests used:
[1] = tested on: superior cervical ganglion (SCG) neurons; experiment: Survival of cultured superior cervical ganglion neurons after NGF withdrawal; type: cell-based, rat; conditions: 50 ng/ml, FIG. 7E
Method: Each GDNF ligand family member consisted of the human mature amino acid sequence and was produced by standard recombinant DNA methods. Recombinant GDNF, neurturin and persephin were obtained from Genentech while recombinant artemin was produced as described in Example 3.
The cultures were performed using standard methods described elsewhere (Kotzbauer et al., Neuron 12:763-773, 1994; Kotzbauer et al., Nature 384:467-470, 1996; Milbrandt et al., Neuron 20:245-253, 1998). […] Cultures were maintained for 3 days, after which they were fixed in 4% paraformaldehyde and stained with toluidine blue, and surviving neurons were counted. For nodose ganglion and dorsal root ganglion neuron cultures, dissociated neurons were plated directly into NGF (for dorsal root ganglia), or BDNF (for nodose ganglia, 100 ng/ml) or one of the GDNF ligands in serum-containing medium (AM50 with anti-NGF antibodies), and cells surviving after 3 days in culture were counted as above. Trigeminal ganglia were dissected, dissociated, and plated directly into medium containing NGF or the indicated GDNF ligands, and the number of surviving cells was assessed after 3 days in vitro. […]

[2] = tested on: SH-SY5Y neuroblastoma cell line; experiment: Differentiation of SH-SY5Y neuroblastoma cells; type: cell-based; conditions: 50 ng/ml, three days after factor addition, FIG. 8C
Method: In one experiment, cells from the SH-SY5Y neuroblastoma cell line were plated at 2×10^5 cells/ml/well in 12-well tissue culture plates. After one day in culture cells were either left untreated (Cn) or stimulated with 50 ng/ml artemin (ART) or 10 μM retinoic acid (RA), a known inducer of differentiation of SH-SYSY cells. Three days after factor addition, differentiation was assessed and cells were photographed.

[3] = target: T1, GFRα3-Fc (Homo sapiens, UniProt O60609); experiment: Direct binding of soluble GFRα3-Fc receptor body to plate-coated ligand; conditions: ligand coated at 325 ng/ml, absence of RET, FIG. 9E
T1 construct: purchased R&D Systems
T1 sequence (O60609 with tags, fused parts or gaps limits assumed): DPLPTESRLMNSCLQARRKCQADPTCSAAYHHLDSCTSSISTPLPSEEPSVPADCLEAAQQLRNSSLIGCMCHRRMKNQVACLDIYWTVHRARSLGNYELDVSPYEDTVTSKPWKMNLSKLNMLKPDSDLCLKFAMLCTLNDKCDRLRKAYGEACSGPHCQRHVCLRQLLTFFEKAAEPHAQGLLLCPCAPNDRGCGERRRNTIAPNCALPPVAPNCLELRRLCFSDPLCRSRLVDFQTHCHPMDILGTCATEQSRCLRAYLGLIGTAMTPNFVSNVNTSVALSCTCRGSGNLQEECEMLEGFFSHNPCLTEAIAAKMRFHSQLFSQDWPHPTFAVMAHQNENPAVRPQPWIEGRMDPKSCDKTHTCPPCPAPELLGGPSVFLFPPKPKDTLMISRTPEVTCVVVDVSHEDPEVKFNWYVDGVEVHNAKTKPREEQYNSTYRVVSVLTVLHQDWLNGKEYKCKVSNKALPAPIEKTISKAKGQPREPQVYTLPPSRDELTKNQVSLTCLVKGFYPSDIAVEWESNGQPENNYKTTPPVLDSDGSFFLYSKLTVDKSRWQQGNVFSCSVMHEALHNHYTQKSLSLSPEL
Method: To investigate which if any of the known coreceptor(s) artemin can utilize to activate RET, its ability to directly bind to soluble Fc-fusion forms of GFRα1, GFRα2, or GFRα3 was assessed. GFRα1-Fc, GFRα2-Fc and GFRα3-Fc fusion proteins were obtained from R&D Systems. Binding assays were performed similarly to assays previously described (Sanicola et al., Proc. Natl. Acad. Sci., USA 94:6238-6243, 1997). Recombinant GDNF, neurturin, artemin, persephin, or purified bovine serum albumin (BSA; Pierce) were coated to Nunc-Immuno MaxiSorp microtiter plates at 325 ng/ml in TBS (10 mM Tris-HCl pH 7.5, 150 mM NaCl) for 1 hour at 25° C. Plates were washed (3× in TBS/0.03% Tween-20), and then blocked (blocking solution: TBS/1% BSA) for 1 hr at 25° C. Receptor bodies diluted in blocking solution were added and incubated for 2 hr at 25° C., washed 5X, then incubated with 1:10,000 dilution of HRP-conjugated anti-human Fc antibodies in blocking solution (Jackson Immunoresearch) for 45 minutes at 25° C. […] The reaction was stopped by adding an equal volume of 0.5M H2SO4, and color was measured in a plate reader at 450 nm. Non-specific binding of receptor bodies to the plates was measured in BSA coated wells, and this binding was subtracted from all other measurements.

[4] = tested on: NLF cells transformed with GFRα2; experiment: Ga14-Elk/Ga14-Luc reporter in NLF neuroblastoma cells transformed with GFRα2; type: cell-based; conditions: factor for 24 hours, low-serum medium, FIG. 10B
Method: Thus, to directly test which receptor combinations can form functional receptors for artemin, expression plasmids for the individual GFRA coreceptors together with the Ga14-Elk/Ga14-Luc reporter system were transiently transformed into fibroblasts that stably express RET. […]
NLF neuroblastoma cells, which naturally express GFRα2/RET (Tansey et al., submitted), or the RET-3T3 cells were plated at 85,000 cells/well in 12-well plates, and cotransfected with the reporter plasmids Ga14-Luc and CMV-Ga14-Elk (250 ng/well and 50 ng/well, respectively), CMV-lacZ (50 ng/well) for transfection normalization, one of the CMV-GFRA expression plasmids (500 ng/well), and pBluescript (650 ng/well) as carrier for a total of 1.5 μg DNA/well using the Superfect reagent (Qiagen) according to the manufacturer's instructions. […] Measurement of luciferase and β-galactosidase activity was measured using a luminometer and performed as described (Svaren et al., EMBO J 17:6010-6019, 1998). The average luciferase activity of duplicate samples was normalized to β-galactosidase activity of the cotransformed lacZ reporter, and fold activation was calculated by dividing the normalized activity in factor-treated cells by that in the no treatment control.

artemin: recombinant mature human artemin (FIG. 3A, SEQ ID NO:3) with 8-histidine tag, produced in E. coli; GDNF family neurotrophic factor
survival of SCG neurons ([1]; 3 days after 5 days in NGF, anti-NGF antibodies): supported the survival of SCG neurons
number of SCG neurons supported compared with GDNF or neurturin [1]: fewer neurons were supported by artemin than by GDNF or neurturin
differentiation (neurite outgrowth, neuronal morphology) of SH-SY5Y cells [2]: induced strong differentiation responses
direct binding of GFRα3-Fc [3]: able to bind to artemin
response of NLF cells transformed with GFRα2 (luciferase reporter) [4]: not GFRα2
